Source: US12691101B2, “Compound and method for preventing or treating of respiratory diseases comprising the same as an active ingredient” (YONSEI UNIVERSITY, UNIVERSITY - INDUSTRY FOUNDATION (UIF), priority 2019, dated 2026)

What was measured:
Type in all cases: cell-based
[1] = target: T1, human AN01 (Homo sapiens, UniProt Q5XXA6, DEL476-501); assay: AN01 chloride channel activity in FRT cells
T1 construct: expressed in transfected cells; host or cells: FRT cells
Procedure: (§1) (A) The inhibition of mouse pendrin (mPDS)-mediated Cl^−/I^− exchange activity by F56 was measured in CHO-K1 cells (mean±S.E., n=5). The indicated concentration of F56 was pretreated for 10 minutes. (B) Summary of dose-response for inhibition of the human pendrin (hPDS)-mediated (closed circle, FIG. (a), C) and mPDS-mediated (open circle) Cl^−/I^− exchange activity. (C-F) Representative traces of intracellular pH in CHO-K1 cells expressing SLC26A3, SLC26A6, SLC26A7 and SLC26A9 were shown. The application of Cl^− free solution induced intracellular alkalization by Cl^−/HCO3^− exchange. The indicated concentration of F56 was pretreated for 10 minutes. (G) the effect of F56 (100 μM) on the CFTR chloride channel activity was measured in FRT cells expressing human CFTR. […] (H) The effect of F56 (100 μM) on the AN01 chloride channel activity was measured in FRT cells expressing human AN01. […] (I) The effect of F56 on the hERG (Kv11.1) potassium channel activity was measured in HEK293T cells expressing human Kv11.1 (mean±S.E., n=4). […] (J) The effect of F56 on the 5-HT2A channel activity was measured in FRT cells expressing human 5-HT2A (mean±S.E., n=4). […]
(§2) (A) The effect of F10 (30 μM) on the CFTR channel was measured in FRT cells expressing human CFTR and mutant YFP. […] (B) The effect of F10 (30 μM) on the AN01 channel activity was measured in FRT cells expressing human and mutant YFP. […]

[2] = test system: NIH3T3 cells; assay: Cell viability, MTS colorimetric analysis, NIH3T3; details: 24 hours, up to 30 μM
Procedure: (A) Pendrin-mediated Cl^−/I^− exchange activity (mean±S.E., n=5). The indicated concentration of F56 was pretreated for 10 minutes. (B, C) Representative tracing of intracellular pH. The application of Cl^− free solution induced intracellular alkalization through pendrin-mediated Cl^−/HCO3^− and Cl^−/OH^− exchange activity. The indicated concentration of F56 was pretreated for 10 minutes. (D-F) The pendrin-mediated Cl^−/I^− exchange activity was measured in CHO-K1 cells expressing human pendrin. The indicated concentration of F56, PDSinh-A01 and PDSinh-C01 was pretreated for 10 minutes. (G) Summary of dose-response of F56, PDSinh-A01 and PDSinh-C01 (mean±S.E., n=3). (H, I) Effect of F56, PDSinh-A01 and PDSinh-C01 on the cell viability in NIH3T3 (H) and CHO-K1 (I) cells. The cells were treated with F56, PDSinh-A01 and PDSinh-C01 for 24 hours. The cell viability was measured by MTS colorimetric analysis (mean±S.E., n=3). NTC, non-transfected cells.
The cells were treated with F10 for 24 hours. The cell viability was determined by MTS colorimetric analysis (mean±S.E., n=3).

[3] = target: T2, human CFTR (Homo sapiens, UniProt P13569); assay: CFTR chloride channel activity in FRT cells
T2 construct: expressed in transfected cells; host or cells: FRT (Fischer rat thyroid) cells; for F10 also expressing mutant YFP
T2 sequence (P13569 whole entry): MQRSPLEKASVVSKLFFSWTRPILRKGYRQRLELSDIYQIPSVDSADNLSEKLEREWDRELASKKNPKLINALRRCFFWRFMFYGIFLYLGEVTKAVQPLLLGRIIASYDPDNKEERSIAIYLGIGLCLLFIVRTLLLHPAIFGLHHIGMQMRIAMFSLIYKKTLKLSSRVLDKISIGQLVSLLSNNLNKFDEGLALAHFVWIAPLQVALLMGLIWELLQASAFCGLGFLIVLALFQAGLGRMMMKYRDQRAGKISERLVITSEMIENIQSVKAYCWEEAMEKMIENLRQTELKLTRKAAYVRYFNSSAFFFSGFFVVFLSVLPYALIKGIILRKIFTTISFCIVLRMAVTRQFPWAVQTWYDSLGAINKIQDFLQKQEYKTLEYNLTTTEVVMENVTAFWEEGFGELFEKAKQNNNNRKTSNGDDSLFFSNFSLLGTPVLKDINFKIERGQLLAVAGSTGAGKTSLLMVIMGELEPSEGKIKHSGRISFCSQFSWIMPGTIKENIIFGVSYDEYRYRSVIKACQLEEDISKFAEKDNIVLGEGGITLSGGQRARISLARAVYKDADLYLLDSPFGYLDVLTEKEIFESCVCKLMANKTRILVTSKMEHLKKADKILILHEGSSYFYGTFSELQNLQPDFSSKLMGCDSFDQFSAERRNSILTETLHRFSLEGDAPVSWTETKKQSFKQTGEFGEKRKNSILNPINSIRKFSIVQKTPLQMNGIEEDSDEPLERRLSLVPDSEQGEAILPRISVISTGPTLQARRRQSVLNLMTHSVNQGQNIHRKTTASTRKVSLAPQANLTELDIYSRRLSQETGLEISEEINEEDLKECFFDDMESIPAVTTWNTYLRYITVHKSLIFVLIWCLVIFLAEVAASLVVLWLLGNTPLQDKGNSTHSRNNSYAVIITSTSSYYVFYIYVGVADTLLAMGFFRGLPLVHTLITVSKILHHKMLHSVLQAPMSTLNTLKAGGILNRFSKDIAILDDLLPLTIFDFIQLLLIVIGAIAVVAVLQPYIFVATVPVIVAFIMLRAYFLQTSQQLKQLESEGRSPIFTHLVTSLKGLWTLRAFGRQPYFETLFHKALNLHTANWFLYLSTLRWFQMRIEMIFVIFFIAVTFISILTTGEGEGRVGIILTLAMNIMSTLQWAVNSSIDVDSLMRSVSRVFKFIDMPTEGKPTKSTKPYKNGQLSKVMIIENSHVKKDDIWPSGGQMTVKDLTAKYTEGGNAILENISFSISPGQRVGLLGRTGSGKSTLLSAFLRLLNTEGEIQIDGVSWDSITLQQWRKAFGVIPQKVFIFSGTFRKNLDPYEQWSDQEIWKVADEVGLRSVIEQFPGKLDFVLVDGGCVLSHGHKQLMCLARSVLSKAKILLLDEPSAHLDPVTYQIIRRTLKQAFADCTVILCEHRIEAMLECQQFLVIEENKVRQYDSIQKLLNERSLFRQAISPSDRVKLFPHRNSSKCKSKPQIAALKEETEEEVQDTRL
Procedure: as §1, §2

[4] = 30 μM, FRT cells with mutant YFP

T1 sequence (Q5XXA6 with tags, fused parts or gaps isoform Q5XXA6-5 DEL539-564): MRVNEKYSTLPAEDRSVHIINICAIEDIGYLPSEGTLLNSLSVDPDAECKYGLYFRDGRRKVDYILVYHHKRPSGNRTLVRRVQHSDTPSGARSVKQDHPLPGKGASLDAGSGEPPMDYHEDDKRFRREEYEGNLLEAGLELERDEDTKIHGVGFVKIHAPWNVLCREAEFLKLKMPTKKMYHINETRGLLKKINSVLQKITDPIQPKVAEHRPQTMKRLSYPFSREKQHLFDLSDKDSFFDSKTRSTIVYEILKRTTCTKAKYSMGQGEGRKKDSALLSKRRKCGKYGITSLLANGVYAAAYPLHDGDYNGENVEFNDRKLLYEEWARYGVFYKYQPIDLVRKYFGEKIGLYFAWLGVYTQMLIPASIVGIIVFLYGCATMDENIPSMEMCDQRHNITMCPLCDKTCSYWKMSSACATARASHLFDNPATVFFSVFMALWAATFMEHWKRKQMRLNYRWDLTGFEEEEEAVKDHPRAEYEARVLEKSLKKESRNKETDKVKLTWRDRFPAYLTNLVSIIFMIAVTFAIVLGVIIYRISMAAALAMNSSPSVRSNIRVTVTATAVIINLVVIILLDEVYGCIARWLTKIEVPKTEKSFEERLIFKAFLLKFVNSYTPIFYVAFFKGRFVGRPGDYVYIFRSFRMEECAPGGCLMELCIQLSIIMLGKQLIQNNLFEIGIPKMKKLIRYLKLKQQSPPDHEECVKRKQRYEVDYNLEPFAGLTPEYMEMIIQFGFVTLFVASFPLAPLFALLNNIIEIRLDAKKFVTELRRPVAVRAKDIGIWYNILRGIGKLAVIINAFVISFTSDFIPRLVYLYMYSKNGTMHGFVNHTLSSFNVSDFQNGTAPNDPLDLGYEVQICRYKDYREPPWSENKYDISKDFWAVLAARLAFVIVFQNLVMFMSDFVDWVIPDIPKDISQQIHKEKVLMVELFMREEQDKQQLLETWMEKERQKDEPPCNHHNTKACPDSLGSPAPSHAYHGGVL

Row | effect on AN01 activity ([1]; 100 μM, FRT cells, ATP-activated) | effect on CFTR activity ([3]; 100 μM, FRT cells, forskolin-activated) | SMILES | cytotoxicity in NIH3T3 cells [2] | effect on AN01 channel activity [1, 4] | effect on CFTR channel activity [3, 4]
1 | not affected | not affected | CC(C)(C)c1ccc(C2=NC(=Cc3cccs3)C(=O)O2)cc1 [F56, 2-(4-(tert-butyl)phenyl)-4-(thiophen-2-ylmethylene)oxazol-5(4H)-one] | did not show cytotoxicity up to 30 μM | – | –
2 | – | – | CC(C)(C)c1ccc(C2=NC(=Cc3ccc[nH]3)C(=O)O2)cc1 [F10, 4-((1H-pyrrol-2-yl)methylene)-2-(4-(tert-butyl)phenyl)oxazol-5 (4H)-one] | did not show any cytotoxicity up to 30 μM | did not show any effect | did not show any effect
